Reference: patent publication US20240122847A1, “ORAL POLYPEPTIDE FORMULATIONS” (Bhami's Research Laboratory, Pvt. Ltd., priority 2022, published 2024)
Read-outs that look alike come from different tables or passages of the source.

Columns and labels:
[1] = minipig, in vivo
Method: (§1) Pharmacokinetic analysis was conducted in Female Minipigs weighing 12±1 kg for 2 days. Pigs in the oral treatment group was either fasted overnight or fed prior to the test sample administration. All the test animals in the treatment groups were administered with respective test formulation to the pre-designated animals. The animal was restrained and its head was held vertically, the jaws were pulled away, the tongue was gently lifted with a forceps followed by placement of a polypeptide formulation as described herein buccally/sublingually. After placing a polypeptide formulation as described herein, the snout was held together for about 1-2 mins to prevent the chewing of the polypeptide formulation. The time of dosage of each animal was noted. Blood samples were collected at aforementioned time points 0 min, 5 min, 30 min, 1 hour, 2 hours, 4 hours, 8 hours, and 24 hours into an EDTA-blood collection tubes for the separation of plasma to determine PTH (1-34) levels by ELISA. Plasma samples collected at different time points were analyzed by ELISA kit according to Creative Diagnostics protocol. This kit is based on sandwich enzyme-linked immuno-sorbent assay technology. An antibody, anti-PTH (1-34) was pre-coated onto a 96-well plate. Standards, test samples, and biotin-conjugated reagent were added to the wells and incubated. The HRP-conjugated reagent was then added, and the whole plate was incubated. Unbound conjugates were removed using wash buffer at each stage. TMB substrate was used to quantify the HRP enzymatic reaction. After TMB substrate was added, only wells that contain sufficient PTH (1-34) will produce a blue colored product, which then changes to yellow after adding the acidic stop solution. The intensity of the yellow color is proportional to the PTH (1-34) amount bound on the plate. The Optical Density (OD) was measured spectrophotometrically at 450 nm in a microplate reader, from which the concentration of PTH (1-34) can be calculated.
(§2) PTH (1-34) was analyzed in plasma using a specific enzyme linked immunosorbent assay (ELISA). Pharmacokinetic endpoints were determined using noncompartmental methods using PK Solutions software. AUC was approximated using the trapezoidal rule on the observed concentrations. C max for each PTH (1-34) dose was derived as the maximum of all valid concentrations, and t max was then determined as the corresponding time point to C max. The terminal elimination rate constant (λz) was estimated by log-linear regression on the terminal part of the concentration-time curve, and t ½ was then calculated as t ½=ln 2/λz.

[2] = rat, in vivo, sc, 0.04 mg
Method: (§3) Pharmacokinetic analysis was conducted in female rats weighing 220-250 grams for 2 days. Rats in the oral treatment group was either fasted overnight or fed prior to the test sample administration. All the test animals in the treatment groups were administered with respective test formulation to the pre-designated animals. The animal was restrained and its head was held vertically, the jaws were pulled away, the tongue was gently lifted with a forceps followed by placement of a polypeptide formulation as described herein buccally/sublingually. After placing a polypeptide formulation as described herein, the snout was held together for about 1-2 mins to prevent the chewing of the polypeptide formulation. The time of dosage of each animal was noted. Blood samples were collected at aforementioned time points 0 min, 15 min, 30 min, 1 hour, 2 hours, 4 hours, 8 hours, 12 hours, 24 hours, and 48 hours into an EDTA-blood collection tubes for the separation of plasma to determine PTH (1-34) levels by ELISA. Plasma samples collected at different time points were analyzed by ELISA kit according to Creative Diagnostics protocol. This kit is based on sandwich enzyme-linked immuno-sorbent assay technology. An antibody, anti-PTH (1-34) was pre-coated onto a 96-well plate. Standards, test samples, and biotin-conjugated reagent were added to the wells and incubated. The HRP-conjugated reagent was then added, and the whole plate was incubated. Unbound conjugates were removed using wash buffer at each stage. TMB substrate was used to quantify the HRP enzymatic reaction. After TMB substrate was added, only wells that contain sufficient PTH (1-34) will produce a blue colored product, which then changes to yellow after adding the acidic stop solution. The intensity of the yellow color is proportional to the PTH (1-34) amount bound on the plate. The Optical Density (OD) was measured spectrophotometrically at 450 nm in a microplate reader, from which the concentration of PTH (1-34) can be calculated.
as §2

[3] = Summary of bioavailability of the formulations of the Examples compared to SC or IV; conditions: plasma, other: buccal/sublingual
[4] = Pharmacokinetics of PTH (1-34) in SD rats, sugar truffle buccal/sublingual vs SC, plasma PTH (1-34) ELISA
Method: as §3, §2

[5] = Pharmacokinetics of PTH (1-34) in minipigs, sugar truffle buccal/sublingual vs SC, plasma PTH (1-34) ELISA; conditions: for AUC(0-inf) / AUC 0-t / AUC(t-inf) extrapolated / MRT inf / AUMC 0-inf_obs / AUMC 0-inf_pred / AUMC 0-t / AUMC t-inf_obs / AUMC t-inf_pred / Clast_obs / Clast_pred / Lambda_z / Tlag / Tlast: minipigs; for Mean PTH (1-34) levels: pigs, GII - Buccal/sublingual 0.49 mg
Method: as §1, §2

[6] = female, SD, rat, plasma, 0.49 mg
[7] = female, SD, rat, plasma, sc, 0.04 mg
[8] = female, Yorkshire, minipig, plasma, 0.49 mg
[9] = female, Yorkshire, minipig, plasma, sc, 0.04 mg

Structure (SMILES): CC[C@H](C)[C@H](NC(=O)[C@H](CCC(=O)O)NC(=O)[C@H](CO)NC(=O)[C@@H](NC(=O)[C@@H](N)CO)C(C)C)C(=O)N[C@@H](CCC(N)=O)C(=O)N[C@@H](CC(C)C)C(=O)N[C@@H](CCSC)C(=O)N[C@@H](Cc1cnc[nH]1)C(=O)N[C@@H](CC(N)=O)C(=O)N[C@@H](CC(C)C)C(=O)NCC(=O)N[C@@H](CCCCN)C(=O)N[C@@H](Cc1cnc[nH]1)C(=O)N[C@@H](CC(C)C)C(=O)N[C@@H](CC(N)=O)C(=O)N[C@@H](CO)C(=O)N[C@@H](CCSC)C(=O)N[C@@H](CCC(=O)O)C(=O)N[C@@H](CCCN=C(N)N)C(=O)N[C@H](C(=O)N[C@@H](CCC(=O)O)C(=O)N[C@@H](Cc1c[nH]c2ccccc12)C(=O)N[C@@H](CC(C)C)C(=O)N[C@@H](CCCN=C(N)N)C(=O)N[C@@H](CCCCN)C(=O)N[C@@H](CCCCN)C(=O)N[C@@H](CC(C)C)C(=O)N[C@@H](CCC(N)=O)C(=O)N[C@@H](CC(=O)O)C(=O)N[C@H](C(=O)N[C@@H](Cc1cnc[nH]1)C(=O)N[C@@H](CC(N)=O)C(=O)N[C@@H](Cc1ccccc1)C(=O)O)C(C)C)C(C)C [PTH (1-34)]
- AUC 0-inf/D_obs ([1]; 0.49 mg): 13610.915 pg·h/mL/mg
- AUC 0-inf/D_pred ([1]; 0.49 mg): 13604.805 pg·h/mL/mg
- AUC 0-t/0-inf_obs ([1]; 0.49 mg): 0.996
- AUC 0-t/0-inf_pred ([1]; 0.49 mg): 0.997
- Clast_obs/Cmax ([1]; 0.49 mg): 0.005
- Clast_pred/Cmax ([1]; 0.49 mg): 0.005
- AUC 0-inf/D_obs ([1]; sc, 0.04 mg): 240.561 pg·h/mL/µg
- AUC 0-inf/D_pred ([1]; sc, 0.04 mg): 240.495 pg·h/mL/µg
- AUC 0-t/0-inf_obs ([1]; sc, 0.04 mg): 0.996
- AUC 0-t/0-inf_pred ([1]; sc, 0.04 mg): 0.996
- Cl/F_obs ([1]; sc, 0.04 mg): 0.004 (μg)/(pg/mL)/h
- Cl/F_pred ([1]; sc, 0.04 mg): 0.004 (μg)/(pg/mL)/h
- Clast_obs/Cmax ([1]; sc, 0.04 mg): 0.002
- Clast_pred/Cmax ([1]; sc, 0.04 mg): 0.002
- Vz/F_obs ([1]; sc, 0.04 mg): 0.027 (μg)/(pg/mL)
- Vz/F_pred ([1]; sc, 0.04 mg): 0.027 (μg)/(pg/mL)
- AUC 0-inf/D_obs [2]: 480.625 pg·h/mL/µg
- AUC 0-inf/D_pred [2]: 480.502 pg·h/mL/µg
- Cl/F_obs [2]: 0.002 (μg)/(pg/mL)/h
- Cl/F_pred [2]: 0.002 (μg)/(pg/mL)/h
- Vz/F_obs [2]: 0.013 (μg)/(pg/mL)
- Vz/F_pred [2]: 0.013 (μg)/(pg/mL)
- bioavailability [3]: > 7%
- level at 5 min [4, 6]: 3510 pg/mL
- level at 0.5 h [4, 6]: 3070 pg/mL
- level at 1 h [4, 6]: 2870 pg/mL
- level at 2 h [4, 6]: 1630 pg/mL
- level at 4 h [4, 6]: 214 pg/mL
- level at 8 h [4, 6]: 33.7 pg/mL
- level at 24 h [4, 6]: 6.02 pg/mL
- bioavailability ([4]; female, SD, rat, plasma, other: buccal/sublingual, 0.49 mg): 7%
- MRT last [4, 7]: 2.02 h
- Tmax [4, 7]: 0.5 h
- half-life [4, 7]: 4.46 h
- level at 0 h [4, 7]: 0.002 pg/mL
- level at 5 min [4, 7]: 403 pg/mL
- level at 0.5 h [4, 7]: 3400 pg/mL
- level at 1 h [4, 7]: 3270 pg/mL
- level at 2 h [4, 7]: 2930 pg/mL
- level at 4 h [4, 7]: 167 pg/mL
- level at 8 h [4, 7]: 50.9 pg/mL
- level at 24 h [4, 7]: 6.2 pg/mL
- AUC(0-inf) ([4]; female, SD, rat, plasma, sc, 0.04 mg, AUC 0-inf_obs, rats): 9.61 ng·h/mL
- AUC(0-inf) ([4]; female, SD, rat, plasma, sc, 0.04 mg, AUC 0-inf_pred, rats): 9.61 ng·h/mL
- AUC 0-t ([4]; female, SD, rat, plasma, sc, 0.04 mg, AUC 0-t, rats): 9.57 ng·h/mL
- AUC(t-inf) ([4]; female, SD, rat, plasma, sc, 0.04 mg, AUC t-inf_obs, rats): 0.0399 ng·h/mL
- AUC(t-inf) ([4]; female, SD, rat, plasma, sc, 0.04 mg, AUC t-inf_pred, rats): 0.0375 ng·h/mL
- MRT inf ([4]; female, SD, rat, plasma, sc, 0.04 mg, MRT 0-inf_obs, rats): 2.13 h
- MRT inf ([4]; female, SD, rat, plasma, sc, 0.04 mg, MRT 0-inf_pred, rats): 2.13 h
- Mean PTH (1-34) levels ([4]; rats, GII - Buccal/sublingual 0.49 mg, 0 min): 0.000 pg/mL
- AUMC 0-inf_obs ([4]; rats, SC, 0.04 mg): 20516.940 pg/mL*h^2
- AUMC 0-inf_pred ([4]; rats, SC, 0.04 mg): 20442.395 pg/mL*h^2
- AUMC 0-t ([4]; rats, SC, 0.04 mg): 19300.931 pg/mL*h^2
- AUMC 0-t/0-inf_obs ([4]; rats, SC, 0.04 mg): 0.941
- AUMC 0-t/0-inf_pred ([4]; rats, SC, 0.04 mg): 0.944
- AUMC t-inf_obs ([4]; rats, SC, 0.04 mg): 1216.009 pg/mL*h^2
- AUMC t-inf_pred ([4]; rats, SC, 0.04 mg): 1141.464 pg/mL*h^2
- Clast_obs ([4]; rats, SC, 0.04 mg): 6.201 pg/mL
- Clast_pred ([4]; rats, SC, 0.04 mg): 5.821 pg/mL
- Cmax ([4]; rats, SC, 0.04 mg): 3401.092 pg/mL
- Lambda_z ([4]; rats, SC, 0.04 mg): 0.155 h⁻¹
- Tlag ([4]; rats, SC, 0.04 mg): 0.000 h
- Tlast ([4]; rats, SC, 0.04 mg): 24.000 h
- Cmax [5, 8]: 3290 pg/mL
- MRT last [5, 8]: 1.35 h
- Tmax [5, 8]: 0.08 h
- half-life [5, 8]: 0.977 h
- level at 5 min [5, 8]: 3290 pg/mL
- level at 0.5 h [5, 8]: 3040 pg/mL
- level at 1 h [5, 8]: 2610 pg/mL
- level at 2 h [5, 8]: 1240 pg/mL
- level at 4 h [5, 8]: 189 pg/mL
- level at 8 h [5, 8]: 17.8 pg/mL
- AUC(0-inf) ([5]; female, Yorkshire, minipig, plasma, 0.49 mg, AUC 0-inf_obs, buccal/sublingual): 6.67 ng·h/mL
- AUC(0-inf) ([5]; female, Yorkshire, minipig, plasma, 0.49 mg, AUC 0-inf_pred, buccal/sublingual): 6.67 ng·h/mL
- AUC 0-t ([5]; female, Yorkshire, minipig, plasma, 0.49 mg, buccal/sublingual): 6.64 ng·h/mL
- AUC(t-inf) extrapolated ([5]; female, Yorkshire, minipig, plasma, 0.49 mg, AUC t-inf_obs, buccal/sublingual): 0.025 ng·h/mL
- AUC(t-inf) extrapolated ([5]; female, Yorkshire, minipig, plasma, 0.49 mg, AUC t-inf_pred, buccal/sublingual): 0.022 ng·h/mL
- MRT inf ([5]; female, Yorkshire, minipig, plasma, 0.49 mg, MRT 0-inf_obs, buccal/sublingual): 1.39 h
- MRT inf ([5]; female, Yorkshire, minipig, plasma, 0.49 mg, MRT 0-inf_pred, buccal/sublingual): 1.38 h
- bioavailability ([5]; female, Yorkshire, minipig, plasma, other: buccal/sublingual, 0.49 mg): 6%
- Cmax [5, 9]: 3280 pg/mL
- MRT last [5, 9]: 2.02 h
- Tmax [5, 9]: 0.5 h
- half-life [5, 9]: 4.55 h
- level at 0 h [5, 9]: 0.002 pg/mL
- level at 5 min [5, 9]: 394 pg/mL
- level at 0.5 h [5, 9]: 3280 pg/mL
- level at 1 h [5, 9]: 3260 pg/mL
- level at 2 h [5, 9]: 2990 pg/mL
- level at 4 h [5, 9]: 164 pg/mL
- level at 8 h [5, 9]: 50 pg/mL
- level at 24 h [5, 9]: 6.43 pg/mL
- AUC(0-inf) ([5]; female, Yorkshire, minipig, plasma, sc, 0.04 mg, AUC 0-inf_obs): 9.62 ng·h/mL
- AUC(0-inf) ([5]; female, Yorkshire, minipig, plasma, sc, 0.04 mg, AUC 0-inf_pred): 9.62 ng·h/mL
- AUC 0-t [5, 9]: 9.58 ng·h/mL
- AUC(t-inf) extrapolated ([5]; female, Yorkshire, minipig, plasma, sc, 0.04 mg, AUC t-inf_obs): 0.0423 ng·h/mL
- AUC(t-inf) extrapolated ([5]; female, Yorkshire, minipig, plasma, sc, 0.04 mg, AUC t-inf_pred): 0.0396 ng·h/mL
- MRT inf ([5]; female, Yorkshire, minipig, plasma, sc, 0.04 mg, MRT 0-inf_obs): 2.15 h
- MRT inf ([5]; female, Yorkshire, minipig, plasma, sc, 0.04 mg, MRT 0-inf_pred): 2.14 h
- AUMC 0-inf_obs ([5]; SC, 0.04 mg): 20668.040 pg/mL*h^2
- AUMC 0-inf_pred ([5]; SC, 0.04 mg): 20587.700 pg/mL*h^2
- AUMC 0-t ([5]; SC, 0.04 mg): 19375.595 pg/mL*h^2
- AUMC t-inf_obs ([5]; SC, 0.04 mg): 1292.445 pg/mL*h^2
- AUMC t-inf_pred ([5]; SC, 0.04 mg): 1212.104 pg/mL*h^2
- Clast_obs ([5]; SC, 0.04 mg): 6.435 pg/mL
- Clast_pred ([5]; SC, 0.04 mg): 6.035 pg/mL
- Lambda_z ([5]; SC, 0.04 mg): 0.152 h⁻¹
- Tlag ([5]; SC, 0.04 mg): 0.000 h
- Tlast ([5]; SC, 0.04 mg): 24.000 h
- AUMC 0-inf_obs ([5]; buccal/sublingual, 0.49 mg): 9236.909 pg/mL*h^2
- AUMC 0-inf_pred ([5]; buccal/sublingual, 0.49 mg): 9208.738 pg/mL*h^2
- AUMC 0-t ([5]; buccal/sublingual, 0.49 mg): 9001.303 pg/mL*h^2
- AUMC t-inf_obs ([5]; buccal/sublingual, 0.49 mg): 235.606 pg/mL*h^2
- AUMC t-inf_pred ([5]; buccal/sublingual, 0.49 mg): 207.435 pg/mL*h^2
- Clast_obs ([5]; buccal/sublingual, 0.49 mg): 17.765 pg/mL
- Clast_pred ([5]; buccal/sublingual, 0.49 mg): 15.641 pg/mL
- Lambda_z ([5]; buccal/sublingual, 0.49 mg): 0.709 h⁻¹
- Tlag ([5]; buccal/sublingual, 0.49 mg): 0.000 h
- Tlast ([5]; buccal/sublingual, 0.49 mg): 8.000 h
- Mean PTH (1-34) levels ([5]; 0 min): 0.000 pg/mL
- Mean PTH (1-34) levels ([5]; 24 hour): 0.000 pg/mL
